In patent US7157457B2, “Compounds useful in the treatment of inflammatory diseases” (Glaxo Group Limited, priority 2000, dated 2007):
Where a name gives a salt, the structure may show the parent alone.

Test system: ovalbumin sensitised guinea pigs
Experiment: Guinea-pig ovalbumin model: eosinophil infiltration and hyper-reactivity
Format: in vivo
Details: 0.2–20 mg/kg, oral route
Description: (c) Guinea-pig Ovalbumin Model
Inhibition of Eosinophil Infiltration and Hyper-Reactivity in the Guinea Pig
In a method based on that described by Danahay et al., 1997, ovalbumin sensitised guinea pigs were dosed with mepyramine (30 mg kg^−1 ip) to protect against anaphylactic bronchospasm. Test compounds, dissolved in 10% DMSO and 90% PEG200, were given by the oral route, 30 minutes before ovalbumin challenge (10 minutes breathing of an aerosol generated from a 0.5% solution of ovalbumin). Hyper-reactivity of the airways to the thromboxane mimetic U46619, was measured 24 hours after ovalbumin challenge in unrestrained animals using a whole body plethysmograph (Buxco Ltd., USA). The guinea pigs were then sacrificed and the lungs lavaged. Total and differential leukocyte counts were then obtained for the bronchoalveolar lavage fluid and the percentage reduction in eosinophil accumulation determined (Sanjar et al., 1992). Data was presented as the inhibitory effect of the specified dose expressed as a percentage of the vehicle control response.

Row | Compound | inhibition of lung eosinophilia
1 | O=C(NCC1CN(Cc2ccc(Cl)c(Cl)c2)CCO1)Nc1ccc(Cl)cc1 (stereo not shown) [Example 14, N-(4-Chlorophenyl)-N′-{[4-(3,4-dichlorobenzyl)morpholin-2-yl]methyl}urea] | showed inhibition

Same assay, conditions: 0.2–20 mg/kg, oral route, hyper-reactivity to U46619

Row | Compound | inhibition of bronchial hyperreactivity
2 | O=C(NCC1CN(Cc2ccc(Cl)c(Cl)c2)CCO1)Nc1ccc(Cl)cc1 (stereo not shown) [Example 14, N-(4-Chlorophenyl)-N′-{[4-(3,4-dichlorobenzyl)morpholin-2-yl]methyl}urea] | showed inhibition

Biological target: T1, CCR-3 (Homo sapiens, UniProt P51677)
T1 sequence (P51677 1-355): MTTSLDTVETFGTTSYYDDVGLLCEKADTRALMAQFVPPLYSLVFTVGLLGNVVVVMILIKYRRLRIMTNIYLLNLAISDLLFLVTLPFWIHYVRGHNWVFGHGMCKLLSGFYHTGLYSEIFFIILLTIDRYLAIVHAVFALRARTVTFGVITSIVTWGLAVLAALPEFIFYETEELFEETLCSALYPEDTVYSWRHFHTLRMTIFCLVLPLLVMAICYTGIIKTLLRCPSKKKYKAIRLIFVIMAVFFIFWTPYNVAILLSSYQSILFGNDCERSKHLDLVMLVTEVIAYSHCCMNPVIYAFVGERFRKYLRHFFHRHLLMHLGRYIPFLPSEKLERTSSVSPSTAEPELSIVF
Experiment: CCR-3 competition binding SPA ([125I]eotaxin)
Set-up: expressed in transfected cells
Details: inhibition of [125I]eotaxin binding to membranes of K562 cells stably expressing CCR-3; mean of at least two experiments; read-out: CCR-3 Binding Assay (pIC50) (converted)
Description: A CCR-3 competition binding SPA (scintillation proximity assay) was used to assess the affinity of novel compounds for CCR-3. Membranes prepared from K562 cells stably expressing CCR-3 (2.5 μg/well) were mixed with 0.25 mg/well wheat-germ agglutinin SPA beads (Amersham) and incubated in binding buffer (HEPES 50 mM, CaCl2 1 mM, MgCl2 5 mM, 0.5% BSA) at 4° C. for 1.5 hr. Following incubation, 20 pM of [^125I] eotaxin (Amersham) and increasing concentrations of compound (1 pM to 30 μM) were added and incubated in a 96 well plate for 2 hr at 22° C. then counted on a Microbeta plate counter. The total assay volume was 100 μl. Competition binding data were analysed by fitting the data with a four parameter logistic equation. Data are presented as the mean pIC50 values (negative logarithm of the concentration of compound which inhibits [^125I]eotaxin binding by 50%) from at least two experiments.

Row | IC50 | Compound
3 | 741 nM | O=C(NCC1CN(Cc2ccc(Cl)c(Cl)c2)CCO1)Nc1ccc(OC(F)F)cc1 (stereo not shown) [Example 16, N-{[4-(3,4-Dichlorobenzyl)morpholin-2-yl]methyl}-N′-[4-(difluoromethoxy)phenyl]urea]
4 | 117 nM | N#Cc1cccc(NC(=O)NCC2CN(Cc3ccc(Cl)c(Cl)c3)CCO2)c1 (stereo not shown) [Example 5, N-(3-Cyanophenyl)-N′-{[4-(3,4-dichlorobenzyl)morpholin-2-yl]methyl}urea]
5 | 1910 nM | C=Cc1ccc(CN2CCOC(CNC(=O)Nc3ccc(Cl)cc3)C2)cc1 (stereo not shown) [Example 38, N-(4-Chlorophenyl)-N′-{[4-(4-vinylbenzyl)morpholin-2-yl]methyl}urea]
6 | 3800 nM | O=C(NCC1CN(Cc2ccc(Cl)s2)CCO1)Nc1ccc(Cl)cc1 (stereo not shown) [Example 37, N-(4-Chlorophenyl)-N′-({4-[(5-chlorothien-2-yl)methyl]morpholin-2-yl}methyl)urea]
7 | 66.1 nM | O=C(NCc1ccc(Cl)cc1)NCC1CN(Cc2ccc(Cl)c(Cl)c2)CCO1 (stereo not shown) [Example 47, N-(4-Chlorobenzyl)-N′-{[4-(3,4-dichlorobenzyl)morpholin-2-yl]methyl}urea]
8 | 1000 nM | N#Cc1ccc(NC(=O)NCC2CN(Cc3ccc(Cl)c(Cl)c3)CCO2)cc1 (stereo not shown) [Example 25, N-(4-Cyanophenyl)-N′-{[4-(3,4-dichlorobenzyl)morpholin-2-yl]methyl}urea]
9 | 661 nM | O=C(NCC1CN(Cc2ccc(Cl)c(Cl)c2)CCO1)Nc1ccc(Cl)cc1 (stereo not shown) [Example 14, N-(4-Chlorophenyl)-N′-{[4-(3,4-dichlorobenzyl)morpholin-2-yl]methyl}urea]
10 | 2000 nM | O=C(NCC1CN(Cc2ccc(Cl)c(Cl)c2)CCO1)Nc1ccc(SC(F)(F)F)cc1 (stereo not shown) [Example 34, N-{[4-(3,4-Dichlorobenzyl)morpholin-2-yl]methyl}-N′-{4-[(trifluoromethyl)thio]phenyl}urea]
11 | 832 nM | O=C(NCC1CN(Cc2ccc3ccccc3c2)CCO1)Nc1ccc(Cl)cc1 (stereo not shown) [Example 23, N-(4-Chlorophenyl)-N′-{[4-(2-naphthylmethyl)Morpholin-2-yl]methyl}urea]
12 | 955 nM | O=C(NCC1CN(Cc2cccc(I)c2)CCO1)Nc1ccc(Cl)cc1 (stereo not shown) [Example 21]

Continued, molecule first:

Row | Compound | IC50
13 | CCOC(=O)C(c1ccccc1)N1CCOC(CNC(=O)Nc2ccc(Cl)cc2)C1 (stereo not shown) [Example 44, Ethyl {2-[({[(4-chlorophenyl)amino]carbonyl}amino)methyl]morpholin-4-yl}(phenyl)acetate] | 10500 nM
14 | NC(=O)c1ccc(CNC(=O)NC[C@H]2CN(Cc3ccc(Cl)c(Cl)c3)CCO2)cc1 [Example 54, 4-({[({[(2S)-4-(3,4-Dichlorobenzyl)morpholin-2-yl]methyl}amino)carbonyl]amino}methyl)benzamide] | 11 nM
15 | Cn1nnc(CNC(=O)NC[C@H]2CN(Cc3ccc(Cl)c(Cl)c3)CCO2)n1 [Example 136, N-{[(2S)-4-(3,4-dichlorobenzyl)morpholin-2-yl]methyl}-N′-[(2-methyl-2H-tetraazol-5-yl)methyl]urea] | 15.8 nM
16 | Cc1ccc(CNC(=O)NCC2CN(Cc3ccc(Cl)c(Cl)c3)CCO2)cc1 (stereo not shown) [Example 3, N-{[4-(3,4-Dichlorobenzyl)morpholin-2-yl]methyl}-N′-(4-methylbenzyl)urea] | 69.2 nM
17 | CNC(=O)c1ccc(CNC(=O)NC[C@H]2CN(Cc3ccc(Cl)c(Cl)c3)CCO2)cc1 [Example 149, 4-({[({[(2S)-4-(3,4-dichlorobenzyl)morpholin-2-yl]methyl}amino)carbonyl]amino}methyl)-N-methylbenzamide] | 15.8 nM
18 | CC(=O)Nc1cccc(CNC(=O)NCC2CN(Cc3ccc(Cl)c(Cl)c3)CCO2)c1 (stereo not shown) [Example 52, N-[3-({[({[4-(3,4-Dichlorobenzyl)morpholin-2-yl]methyl}amino)carbonyl]amino}methyl)phenyl]acetamide Formate] | 1.78 nM
19 | O=C(NCC1CN(Cc2ccc(Cl)c(Cl)c2)CCO1)Nc1cccc(C(F)(F)F)c1 (stereo not shown) [Example 22, N-{[4-(3,4-Dichlorobenzyl)morpholin-2-yl]methyl}-N′-[3-(trifluoromethyl)phenyl]urea] | 955 nM

Biological target: T1, CCR-3
Experiment: Eosinophil chemotaxis assay (eotaxin-induced)
Format: cell-based
Set-up: Eosinophils were purified from human peripheral blood; endogenous in cells; host or cells: human peripheral blood eosinophils
Details: functional pKi; eosinophils from human peripheral blood; agonist eotaxin; read-out: CCR-3 Eosinophil Chemotaxis Assay (fpKi) (converted)
Description: (b) Eosinophil Chemotaxis Assay.
Compounds were evaluated for their inhibitory effect on eosinophil chemotaxis. Eosinophils were purified from human peripheral blood by standard CD16 cell depletion using a Miltenyi cell separation column and a magnetic Super Macs magnet as previously described (Motegi & Kita, 1998; J. Immunology. 161:4340–6). Cells were re-suspended in RPMI 1640/10% FCS solution and incubated with calcein-AM (Molecular Probes) at 37° C. for 30 mins. Following incubation, the eosinophils were centrifuged at 400 g for 5 min and re-suspended in RPMI/FCS at 2.2 million/ml. Cells were then incubated in the presence of increasing concentration of compounds (1 pM to 30 μM) at 37° C. for 30 mins. For control responses cells were incubated with RPMI/FCS only. The agonist eotaxin (either a concentration response curve or for the functional inhibition curves an EC80 concentration) was added to the lower chamber of a 96 well chemotaxis plate (5 μm filter: Receptor Technologies). Eosinophils (50 μl of 2 million/ml cells) were added to the top chamber of the filter plate and incubated at 37° C. for 45 mins. Cells remaining on top of the chemotaxis filter were removed and the number of eosinophils which had migrated were quantified by reading the plate on a fluorescent plate reader. Inhibition curves for the effect of compounds on eosinophil chemotaxis were analysed by fitting the data with a four parameter logistic equation. Functional pKi values (fpKi) were generated using the equation below (Lazareno & Birdsall, 1995. Br. J. Pharmacol 109: 1110–9).

Row | Ki | Compound
20 | 1100 nM | O=C(NCC1CN(Cc2cccc3ccccc23)CCO1)Nc1ccc(Cl)cc1 (stereo not shown) [Example 19, N-(4-Chlorophenyl)-N′-{[4-(1 naphthylmethyl)morpholin-2-yl]methyl}urea]
21 | 1410 nM | O=C(NCC1CN(Cc2cccc(Cl)c2)CCO1)Nc1ccc(Cl)cc1 (stereo not shown) [Example 26, N-{[4-(3-Chlorobenzyl)morpholin-2-yl]methyl}-N′-(4-chlorophenyl)urea]
22 | 1450 nM | CSc1cccc(NC(=O)NCC2CN(Cc3ccc(Cl)c(Cl)c3)CCO2)c1 (stereo not shown) [Example 18, N-{[4-(3,4-Dichlorobenzyl)morpholin-2-yl]methyl}-N′-[3-(methylthio)phenyl]urea]
23 | 407 nM | O=C(NCC1CN(Cc2ccc(Cl)c(Cl)c2)CCO1)Nc1cccc(Cl)c1 (stereo not shown) [Example 13, N-(3-Chlorophenyl)-N′-{[4-(3,4-dichlorobenzyl)morpholin-2-yl]methyl}urea]

Second part, the molecule before the results:

Row | Compound | Ki
24 | O=C(NCCc1ccccc1)NCC1CN(Cc2ccc(Cl)c(Cl)c2)CCO1 (stereo not shown) [Example 8, N-{[4-(3,4-Dichlorobenzyl)morpholin-2-yl]methyl}-N′-(2-phenylethyl)urea] | 115 nM
25 | C#CCNC(=O)NC[C@H]1CN(Cc2ccc(Cl)c(Cl)c2)CCO1 [Example 57, N-{[(2S)-4-(3,4-Dichlorobenzyl)morpholin-2-yl]methyl}-N′-prop-2-ynylurea] | 9.77 nM
26 | Cc1cccc(CNC(=O)NCC2CN(Cc3ccc(Cl)c(Cl)c3)CCO2)c1 (stereo not shown) [Example 4, N-{[4-(3,4-Dichlorobenzyl)morpholin-2-yl]methyl}-N′-(3-methylbenzyl)urea] | 44.7 nM
27 | NC(=O)c1ccc(CNC(=O)NC[C@H]2CN(Cc3ccc(Cl)c(Cl)c3)CCO2)cc1 [Example 54, 4-({[({[(2S)-4-(3,4-Dichlorobenzyl)morpholin-2-yl]methyl}amino)carbonyl]amino}methyl)benzamide] | 15.8 nM
28 | O=C(NCc1cccc(Cl)c1)NCC1CN(Cc2ccc(Cl)c(Cl)c2)CCO1 (stereo not shown) [Example 48, N-(3-Chlorobenzyl)-N′-{[4-(3,4-dichlorobenzyl)morpholin-2-yl]methyl}urea] | 38.9 nM
29 | Cn1nnc(CNC(=O)NC[C@H]2CN(Cc3ccc(Cl)c(Cl)c3)CCO2)n1 [Example 136, N-{[(2S)-4-(3,4-dichlorobenzyl)morpholin-2-yl]methyl}-N′-[(2-methyl-2H-tetraazol-5-yl)methyl]urea] | 5.01 nM
30 | CNC(=O)c1ccc(CNC(=O)NC[C@H]2CN(Cc3ccc(Cl)c(Cl)c3)CCO2)cc1 [Example 149, 4-({[({[(2S)-4-(3,4-dichlorobenzyl)morpholin-2-yl]methyl}amino)carbonyl]amino}methyl)-N-methylbenzamide] | 15.8 nM
31 | COc1ccc(CNC(=O)NCC2CN(Cc3ccc(Cl)c(Cl)c3)CCO2)cc1 (stereo not shown) [Example 2, N-{[4-(3,4-Dichlorobenzyl)morpholin-2-yl]methyl}-N′-(4-methoxybenzyl)urea] | 49 nM
